From patent US6964983B2, “Compounds that modulate PPAR activity and methods for their preparation” (Warner-Lambert Company, LLC, priority 2002, dated 2005)

Legend:
hPPARα = molecular target: T1, hPPARα (Homo sapiens, UniProt Q07869); test: Transient transfection assay in HepG2 cells, Gal4-hPPARα chimeric receptor, luciferase reporter; type: cell-based; settings: Hep G2-hAlpha EC50, 24 hours incubation; read-out: EC50α nM (Group)
T1 sequence (Q07869 200-468 limits assumed): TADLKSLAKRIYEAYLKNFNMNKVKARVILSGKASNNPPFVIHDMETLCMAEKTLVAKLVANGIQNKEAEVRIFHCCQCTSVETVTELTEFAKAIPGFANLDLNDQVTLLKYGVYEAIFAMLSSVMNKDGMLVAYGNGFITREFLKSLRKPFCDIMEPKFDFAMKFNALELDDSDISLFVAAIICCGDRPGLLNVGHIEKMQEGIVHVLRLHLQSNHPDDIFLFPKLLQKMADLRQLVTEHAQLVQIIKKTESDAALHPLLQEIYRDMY
Protocol: (§1) 1. Test A. Transient Transfections Assay using the HepG2 Hepatoma Cell Line.
(§2) HepG2 cells were transiently transfected with an expression plasmids encoding hPPARα, hPPARβ or mPPARγ chimeric receptors and a reporter containing the yeast upstream activating sequence (UAS) upstream of the viral E1B promoter controlling a luciferase reporter gene. In addition, the plasmid pRSVβ-gal was used to control for transfection efficiency. HepG2 cells were grown in DMEM supplemented with 10% FBS and 1 μM non-essential amino acid. On the first day, cells were split into 100 mm dishes at 2.5×10^6/dish and incubated overnight at 37° C./5% CO2. On the second day the cells were transiently transfected with plasmid DNA encoding a chimeric receptor, the luciferase reporter gene; and β-gal. For each 100 mm dish, 15 μg of lucifease reporter (PG5E1b) DNA, 15 μg of Gal4-PPAR chimeric receptor DNA, and 1.5 μg of β-gal plasmid DNA were mixed with 1.4 ml of opti-MEM in the tube. 28 μl of LipoFectamine-2000 reagent was added to 1.4 ml of opti-MEM in the tube, and incubate for 5 min at RT. The diluted Lipofectamine-2000 reagent was combined with the DNA mixture, and incubate for 20 min at RT. After fresh medium was added to each 100 mm dish of cells, 2.8 ml of Lipofectamine2000-DNA mixture was added dropwise to the 100 mm dish containing 14 ml of medium, and incubate 37° C. overnight. On day three cells were trypsinized off the 100 mm dishes and re-plated on 96 well plates. Cells were plated at 2.5×10^4 cells per well in 150 μl of media and 50 μl of compound diluted by media was added. The test compound added were in the range from 50 μM to 50 pM. After addition of compounds, the plates were incubated at 37° C. for 24 hours. Subsequently cells were washed with once with 100 μl of PBS, lysed, and processed for measuring luciferase and β-gal activity using Dual-Light luciferase kit from Tropix ®, according to the manufacturer's recommendations, on an EG&G Bethold MicroLumat LB96P luminometer. EC50 values were obtained using the GraphPad Prism™ program.

hPPARβ = molecular target: T2, hPPARβ (Homo sapiens, UniProt Q03181); test: Transient transfection assay in HepG2 cells, Gal4-hPPARβ chimeric receptor, luciferase reporter; type: cell-based; settings: Hep G2-hBeta EC50, 24 hours incubation; read-out: EC50β nM (Group)
T2 sequence (Q03181 171-441 limits assumed): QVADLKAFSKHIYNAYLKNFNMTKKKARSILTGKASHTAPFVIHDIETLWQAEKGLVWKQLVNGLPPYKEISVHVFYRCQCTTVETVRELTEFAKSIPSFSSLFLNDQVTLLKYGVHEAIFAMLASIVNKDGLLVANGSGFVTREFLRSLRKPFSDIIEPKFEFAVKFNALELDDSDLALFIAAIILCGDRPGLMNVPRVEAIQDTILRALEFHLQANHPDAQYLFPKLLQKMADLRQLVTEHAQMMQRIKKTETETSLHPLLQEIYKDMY
Protocol: as §1, §2

Row | Structure (SMILES) | EC50 (hPPARα) | EC50 (hPPARβ) | melting point
1 | COc1cc(OCC(=O)O)c(C)cc1SCc1cc(-c2ccc(C(F)(F)F)cc2)no1 [Example 46, {5-Methoxy-2-methyl-4-[3-(4-trifluoromethyl-phenyl)-isoxazol-5-ylmethylsulfanyl]-phenoxy}-acetic acid] | < 300 nM | < 300 nM | 
2 | O=C(O)COc1ccc(SCc2cc(-c3ccc(C(F)(F)F)cc3)on2)c2c1CCC2 [Example 44, {7-[5-(4-Trifluoromethyl-phenyl)-isoxazol-3-ylmethylsulfanyl]-indan-4-yloxy}-acetic acid] | > 5000 nM | 500 to 1000 nM | 
3 | Cc1cc(SCc2cc(-c3ccc(C(F)(F)F)cc3)on2)ccc1OCC(=O)O [Example 42, {2-Methyl-4-[5-(4-trifluoromethyl-phenyl)-isoxazol-3-ylmethylsulfanyl]-phenoxy}-acetic acid] | 2000 to 5000 nM |  | 
4 | COc1cc(OCC(=O)O)c(C)cc1SCc1ccc(-c2cccc(OC(F)(F)F)c2)cc1 [Example 11, [5-Methoxy-2-methyl-4-(3′-trifluoromethoxy-biphenyl-4-ylmethylsulfanyl)-phenoxy]-acetic acid] | 500 to 1000 nM | < 300 nM | 
5 | O=C(O)COc1ccc(SCc2cccc(-c3ccc(C(F)(F)F)cc3)c2)c2c1CCC2 [Example 48, [7-(4′-Trifluoromethyl-biphenyl-3-ylmethylsulfanyl)-indan-4-yloxy]-acetic acid] | 2000 to 5000 nM | < 300 nM | 
6 | COc1cc(OCC(=O)O)c(C)cc1SCc1ccc(-c2ccc(F)cc2)cc1 [Example 10, [4-(4′-Fluoro-biphenyl-4-ylmethylsulfanyl)-5-methoxy-2-methyl-phenoxy]-acetic acid] | 300 to 500 nM | < 300 nM | 
7 | COc1cc(OCC(=O)O)c(C)cc1SCc1cc(-c2ccc(C(F)(F)F)cc2)on1 [Example 43, {5-Methoxy-2-methyl-4-[5-(4-trifluoromethyl-phenyl)-isoxazol-3-ylmethylsulfanyl]-phenoxy}-acetic acid] | 500 to 1000 nM | < 300 nM | 
8 | O=C(O)COc1ccc(SCc2cccc(-c3ccc(C(F)(F)F)cn3)c2)c2c1CCC2 [Example 53, {7-[3-(5-Trifluoromethyl-pyridin-2-yl)-benzylsulfanyl]-indan-4-yloxy}-acetic acid] | 1000 to 2000 nM | < 300 nM | 
9 | Cc1cc(SCc2ccc3c(c2)Cc2ccccc2-3)ccc1OCC(=O)O [Example 17] | 2000 to 5000 nM | 1000 to 2000 nM | 
10 | COc1cc(OCC(=O)O)c(C)cc1SCc1ccc(-c2ccc(Cl)cc2Cl)cc1 [Example 7, [4-(2′,4′-Dichloro-biphenyl-4-ylmethylsulfanyl)-5-methoxy-2-methyl-phenoxy]-acetic acid] | < 300 nM | < 300 nM | 
11 | COc1cc(OCC(=O)O)c(C)cc1SCc1cc(-c2ccc(Cl)cc2)on1 [Example 41, {4-[5-(4-Chloro-phenyl)-isoxazol-3-ylmethylsulfanyl]-5-methoxy-2-methyl-phenoxy}-acetic acid] | 2000 to 5000 nM | < 300 nM | 
12 | O=C(O)COc1ccc(SCc2ccc(-c3ccc(C(F)(F)F)cc3)cc2)c2c1CCCO2 [Example 93, [8-(4′-Trifluoromethyl-biphenyl-4-ylmethylsulfanyl)-chroman-5-yloxy]-acetic acid] |  | 500 to 1000 nM | 170 to 172 °C
13 | O=C(O)COc1ccc(SCc2ccc(OCc3ccc(F)cc3F)cc2)c2c1CCC2 [Example 66, {7-[4-(2,4-Difluoro-benzyloxy)-benzylsulfanyl]-indan-4-yloxy}-acetic acid] |  | > 5000 nM | 158 to 160 °C
14 | O=C(O)COc1ccc(SCc2ccc(OCc3cc(Cl)cc(Cl)c3)cc2)c2c1CCC2 [Example 77, {7-[4-(3,5-Dichloro-benzyloxy)-benzylsulfanyl]-indan-4-yloxy}-acetic acid] |  | 300 to 500 nM | 134 to 135 °C
15 | CCCc1cc(SCc2ccc(-c3ccc(C(F)(F)F)cc3)cc2)ccc1OCC(=O)O [Example 52, [2-Propyl-4-(4′-trifluoromethyl-biphenyl-4-ylmethylsulfanyl)-phenoxy]-acetic acid] | 500 to 1000 nM | < 300 nM | 
16 | O=C(O)COc1ccc(SCc2ccc(OCc3ccc(OC(F)(F)F)cc3)cc2)c2c1CCC2 [Example 75, {7-[4-(4-Trifluoromethoxy-benzyloxy)-benzylsulfanyl]-indan-4-yloxy}-acetic acid] |  | 500 to 1000 nM | 140 to 142 °C
17 | O=C(O)COc1ccc(SCc2ccc(OCc3ccc(F)cc3C(F)(F)F)cc2)c2c1CCC2 [Example 76, {7-[4-(4-Fluoro-2-trifluoromethyl-benzyloxy)-benzylsulfanyl]-indan-4-yloxy}-acetic acid] |  | 1000 to 2000 nM | 125 to 127 °C
18 | O=C(O)COc1ccc(SCc2cc(-c3ccc(Cl)cc3)no2)c2c1CCC2 [Example 98, {7-[3-(4-Chloro-phenyl)-isoxazol-5-ylmethylsulfanyl]-indan-4-yloxy}-acetic acid] |  | 2000 to 5000 nM | 158 to 160 °C
19 | COc1cc(OCC(=O)O)ccc1SCc1ccc(-c2ccc(C(F)(F)F)cc2)cc1 [Example 21, [3-Methoxy-4-(4′-trifluoromethyl-biphenyl-4-ylmethylsulfanyl)-phenoxy]-acetic acid] | < 300 nM | < 300 nM | 
20 | COc1cc(OCC(=O)O)c(C)cc1SCc1ccc(-c2c(C)cc(C)cc2C)cc1 [Example 5, [5-Methoxy-2-methyl-4-(2′,4′,6′-trimethyl-biphenyl-4-ylmethylsulfanyl)-phenoxy]-acetic acid] |  | 1000 to 2000 nM | 141 °C
21 | O=C(O)COc1ccc(SCc2cc(-c3ccccc3Cl)on2)c2c1CCC2 [Example 87, {7-[5-(2-Chloro-phenyl)-isoxazol-3-ylmethylsulfanyl]-indan-4-yloxy}-acetic acid] |  | 2000 to 5000 nM | 161 to 162 °C
22 | Cc1onc(-c2c(Cl)cccc2Cl)c1CSc1ccc(OCC(=O)O)c2c1CCC2 [Example 88, {7-[3-(2,6-Dichloro-phenyl)-5-methyl-isoxazol-4-ylmethylsulfanyl]-indan-4-yloxy}-acetic acid] |  | > 5000 nM | 151 to 152 °C
23 | CCCCc1cc(SCc2ccc(-c3ccc(C(F)(F)F)cc3)cc2)ccc1OCC(=O)O [Example 100, 2-[2-butyl-4-({4-[4-(trifluoromethyl)phenyl]phenyl}methylthio)phenoxy]acetic acid] |  | 500 to 1000 nM | 155 to 157 °C
24 | O=C(O)COc1ccc(SCc2ccc(OCc3cc(Cl)ccc3Cl)cc2)c2c1CCCO2 [Example 85, {8-[4-(2,5-Dichloro-benzyloxy)-benzylsulfanyl]-chroman-5-yloxy}-acetic acid] |  | 1000 to 2000 nM | 98 to 100 °C
25 | COc1ccc(COc2ccc(CSc3ccc(OCC(=O)O)c4c3CCC4)cc2)cc1 [Example 68, {7-[4-(4-Methoxy-benzyloxy)-benzylsulfanyl]-indan-4-yloxy}-acetic acid] |  | 1000 to 2000 nM | 183 to 185 °C
26 | O=C(O)COc1ccc(SCc2ccc(OCc3ccccc3)cc2)c2c1CCC2 [Example 69, [7-(4-Benzyloxy-benzylsulfanyl)-indan-4-yloxy]-acetic acid] |  | 2000 to 5000 nM | 145 to 147 °C
27 | O=C(O)COc1ccc(SCc2ccc(OCc3cc(Cl)ccc3Cl)cc2)c2c1CCC2 [Example 71, {7-[4-(2,5-Dichloro-benzyloxy)-benzylsulfanyl]-indan-4-yloxy}-acetic acid] |  | 500 to 1000 nM | 158 to 160 °C
28 | COc1ccc(CSc2ccc(OCC(=O)O)c3c2CCC3)cc1OCc1ccc(C(F)(F)F)cc1 [Example 78, {7-[4-Methoxy-3-(4-trifluoromethyl-benzyloxy)-benzylsulfanyl]-indan-4-yloxy}-acetic acid] |  | 300 to 500 nM | 150 to 151 °C
